For this assay, the system named is tebuconazole-resistant Fusarium graminearum (TR). Kind of assay: microbe, parasite or virus in culture. The class given is cell-based. The following applies: for EC50: Fusarium graminearum, 72 h; for ATI: ZJS178 as standard reagent, TR strain.

The structures appear in SMILES notation. Values after ≈ are worked out from the molar mass of the structure shown.

What is called EC50 is the concentration needed to bring the measured effect to its halfway point. A lower EC50 goes with higher potency in that assay.

The compound `CC(C)(C)C(O)(CCc1ccc(Cl)cc1)Cn1cncn1` (racemic) [Tebuconazole (B), (RS)-1-p-chlorophenyl-4,4-dimethyl-3-(1H-1,2,4-triazol-1-ylmethyl)pentan-3-ol, reference compound] gave an EC50 of 1.52 µg/mL (≈ 4.95 µM) and an ATI of 2.34.
The corresponding values for `CCOC(=O)/C(C#N)=C(\N)c1ccc(N(C)CC)cc1` [ZJS178 (A), ethyl 2-cyano-3-amino-3-[4-(N-ethyl-N-methylamino)phenyl]acrylate] are 0.0356 µg/mL (≈ 0.13 µM) and 100.00.
